Literature values as cited in US20240398903A1, “COMPOSITION AND METHODS OF TREATMENT USING […] - ENHANCED SUPPLEMENTATION” (Xygenyx Inc., priority 2023, published 2024).

Legend:
[1] = mice
[2] = test system: skin; details: penetration enhancer for transdermal drugs
[3] = test system: wide dynamic range neurons in the ventroposterolateral nucleus of the thalamus; details: in vivo
[4] = in vivo
[5] = test system: skin; details: topical, concentrations 0.5-5%
[6] = as compared to α-tocopherol (factor 1.0)
[7] = even when dietary intake occurs in equal portions
[8] = in vivo; remark: listed apart in the source

## CC(CN)C(=O)O [L-BAIBA, L-beta-aminoisobutyric acid]
[1]
  tolerated dose: 10-100 mg/kg of bodyweight

## CC(C)[C@@H]1CC[C@@H](C)C[C@H]1O [Menthol]
[2]
  increase of drug uptake via the transdermal route (factor): ≥ 10

## CCCCCc1cc(O)c2c(c1)OC(C)(C)C1CCC(C)=CC21 (stereo not drawn) [THC, Δ-9-tetrahydrocannabinol]
[3]
  power in mediating pain relative to morphine: ten times more powerful than morphine

## CCNC(=O)CC[C@H](N)C(=O)O [Theanine]
[4]
  dose considered safe and well-tolerated: up to 400 mg per day

## C=CCCCCCCCCC(=O)N[C@@H](Cc1ccccc1)C(=O)O [UP, Undecylenoyl phenylalanine]
[5]
  time of treatment to skin lightening effects: ≥ 7 days

## CC12CCC(CC1)C(C)(C)O2 [eucalyptol, 1,8-epoxy-p-menthane]
[2]
  increase of drug uptake via the transdermal route (factor): more than 10

## Cc1c(C)c2c(c(C)c1O)CC[C@@](C)(CCC[C@H](C)CCC[C@H](C)CCCC(C)C)O2 [α-tocopherol]
Dietary supplementation, doses up to 400 IU/day
  reducing the risk of coronary disease: up to 34%
Dietary supplementation, doses up to 400 IU/day, controlled trials
  reduce the risk of developing neurodegenerative diseases such as Alzheimer's Syndrome or dementia: ≤ 24%
In combination with 10-20 mg β-carotene and 400-500 mg vitamin C
  reduction in the development of age-related cataracts: 23%
[6]
  relative biological activity: 1.0

## Cc1cc(O)c(C)c2c1O[C@](C)(CCC[C@H](C)CCC[C@H](C)CCCC(C)C)CC2 [β-tocopherol]
[6]
  relative biological activity: 0.5

## Cc1c(O)cc2c(c1C)O[C@](C)(CCC[C@H](C)CCC[C@H](C)CCCC(C)C)CC2 [γ-tocopherol]
[6]
  relative biological activity: 0.1
[7]
  concentration in vivo relative to α-tocopherol: roughly 10%

## Cc1cc(O)cc2c1O[C@](C)(CCC[C@H](C)CCC[C@H](C)CCCC(C)C)CC2 [δ-tocopherol]
[6]
  relative biological activity: 0.03

## HGH: hormone comprising a peptide chain that is synthesized in the pituitary gland
[8]
  biological half-life: 10-20 minutes
